Our source for the Original amplitude and Dose values is ChEMBL document CHEMBL1136640, “The newly synthesized linoleic acid derivative FR236924 induces a long-lasting facilitation of hippocampal neurotransmission by targeting nicotinic acetylcholine receptors” (2003).

Assay [1] relates to Torpedo. In words: Effect on Torpedo nicotinic ACh receptor responses at 10 min determined by measuring percentage of original amplitude.
Assay [2] concerns Torpedo. In words: Effect on Torpedo nicotinic ACh receptor responses at 0 min determined by measuring percentage of original amplitude.
A further assay concerns Rattus norvegicus. In words: Intraperitoneal dose required to facilitate the hippocampal neurotransmission in rat. In kind it is functional, Hippocampus.

Turning to `CCCCCCCCC1CC1CCCCCCCC(=O)O` (configuration not stated), the Original amplitude was 124% in the assay with Torpedo [1] and 117% with Torpedo [2].
Consider `CC/C=C\C/C=C\C/C=C\CCCCCCCC(=O)O`, for which the Original amplitude came out at 272% in the assay on Torpedo [1] and 77% in the assay on Torpedo [2].
In the same order, the values of `CCCCC/C=C\C/C=C\CCCCCCCC(=O)O` are 175% and 72%.
Consider `CCCCCC1CC1CC1CC1CCCCCCCC(=O)O` (configuration not stated) [FR-236924], for which the figures for the Original amplitude in the assay on Torpedo [1] and in the assay with Torpedo [2] were 156% and 122%, respectively. The compound further displayed a Dose in the assay with Rattus norvegicus of 2 mg/kg.
With `CCCCCCCC/C=C\CCCCCCCC(=O)O`, the figures for the Original amplitude with Torpedo [1] and with Torpedo [2] were 139% and 108%, respectively.
In the same order, the values of `CCCCCC1CC1CC1CC1CC1CC1CC1CC1CCCC(=O)O` (configuration not stated) are 78% and 88%.
For the compound `CCC1CC1CC1CC1CC1CC1CCCCCCCC(=O)O` (configuration not stated), the Original amplitude with Torpedo [1] amounted to 69%; in the assay with Torpedo [2], 87%.
The like results for `CCCCC/C=C\C/C=C\C/C=C\C/C=C\CCCC(=O)O` were, in that order, 139% and 78%.
